Consider one compound from ChEMBL document CHEMBL1629464, “Aldehyde oxidase: an enzyme of emerging importance in drug discovery” (J Med Chem, 2010).

The target in the experiment is T1, Aldehyde oxidase 1 (Oryctolagus cuniculus, UniProt P80456).
T1 sequence (P80456 whole entry): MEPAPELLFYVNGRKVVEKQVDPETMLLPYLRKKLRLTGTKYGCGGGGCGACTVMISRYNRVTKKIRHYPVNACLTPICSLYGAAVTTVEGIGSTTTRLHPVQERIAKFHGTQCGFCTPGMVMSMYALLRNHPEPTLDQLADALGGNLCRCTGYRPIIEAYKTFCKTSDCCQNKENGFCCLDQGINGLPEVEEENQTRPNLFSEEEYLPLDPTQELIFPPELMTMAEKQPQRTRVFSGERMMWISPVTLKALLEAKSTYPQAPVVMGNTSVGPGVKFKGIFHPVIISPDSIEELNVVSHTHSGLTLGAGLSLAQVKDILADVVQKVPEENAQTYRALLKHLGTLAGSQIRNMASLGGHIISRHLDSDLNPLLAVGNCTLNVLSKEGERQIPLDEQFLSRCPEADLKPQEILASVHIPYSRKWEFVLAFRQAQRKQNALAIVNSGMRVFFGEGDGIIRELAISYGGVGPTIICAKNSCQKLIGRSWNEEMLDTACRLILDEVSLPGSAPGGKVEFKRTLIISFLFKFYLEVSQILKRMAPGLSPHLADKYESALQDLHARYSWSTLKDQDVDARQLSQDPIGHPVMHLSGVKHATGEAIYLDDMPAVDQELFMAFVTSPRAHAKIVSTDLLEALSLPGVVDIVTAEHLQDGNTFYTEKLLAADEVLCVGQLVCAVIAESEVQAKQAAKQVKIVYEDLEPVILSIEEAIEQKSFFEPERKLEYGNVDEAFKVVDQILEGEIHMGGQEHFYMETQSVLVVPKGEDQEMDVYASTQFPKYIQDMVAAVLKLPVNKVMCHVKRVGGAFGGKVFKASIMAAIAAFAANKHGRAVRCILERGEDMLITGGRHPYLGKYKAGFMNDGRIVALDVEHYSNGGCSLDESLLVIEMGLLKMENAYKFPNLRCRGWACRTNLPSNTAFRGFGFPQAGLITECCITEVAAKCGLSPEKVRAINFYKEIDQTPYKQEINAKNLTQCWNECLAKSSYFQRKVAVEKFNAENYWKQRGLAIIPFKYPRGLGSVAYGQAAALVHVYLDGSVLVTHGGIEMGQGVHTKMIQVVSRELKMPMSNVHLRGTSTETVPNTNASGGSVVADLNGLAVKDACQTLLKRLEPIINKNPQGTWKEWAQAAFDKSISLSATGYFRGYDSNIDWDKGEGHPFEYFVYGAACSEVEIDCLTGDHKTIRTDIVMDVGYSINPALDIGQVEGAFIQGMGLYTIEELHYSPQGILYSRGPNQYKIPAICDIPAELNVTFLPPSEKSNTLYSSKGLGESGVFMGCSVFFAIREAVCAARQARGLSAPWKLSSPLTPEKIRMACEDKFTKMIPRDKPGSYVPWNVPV
The experiment can be described thus: Inhibition of rabbit aldehyde oxidase.

With `C[C@]12CC[C@@H]3c4ccc(O)cc4CC[C@H]3[C@@H]1CC[C@@H]2O` [ESTRADIOL], half-maximal inhibition (IC50) was put at 40 µM.
